Data taken from ChEMBL document CHEMBL3045548, “Synthesis of some novel 1,2,4-triazole and 1,3,4-oxadiazole derivatives of biological interest” (2013).
Values after ≈ are worked out from the molar mass of the structure shown.

Assays:
Format in all cases: functional
[1] = tested on: Pseudomonas aeruginosa; assay: Antimicrobial activity against Pseudomonas aeruginosa NICM 2036 assessed as growth inhibition by two-fold serial dilution method
[2] = tested on: Escherichia coli; assay: Antimicrobial activity against Escherichia coli NICM 2138 assessed as growth inhibition by two-fold serial dilution method
[3] = tested on: Staphylococcus epidermidis; assay: Antimicrobial activity against Staphylococcus epidermidis NICM 2493 assessed as growth inhibition by two fold serial dilution method
[4] = tested on: Staphylococcus aureus; assay: Antimicrobial activity against Staphylococcus aureus NICM 2079 assessed as growth inhibition by two fold serial dilution method
[5] = tested on: Bacillus subtilis; assay: Antimicrobial activity against Bacillus subtilis NICM 2063 assessed as growth inhibition by two fold serial dilution method
[6] = tested on: Saccharomyces cerevisiae; assay: Antimicrobial activity against Saccharomyces cerevisiae NICM 3312 assessed as growth inhibition by two fold serial dilution method
[7] = tested on: Candida albicans; assay: Antimicrobial activity against Candida albicans NICM 3100 assessed as growth inhibition by two-fold serial dilution method
[8] = tested on: Aspergillus flavus; assay: Antimicrobial activity against Aspergillus flavus NICM 524 assessed as growth inhibition by two fold serial dilution method
[9] = tested on: Aspergillus niger; assay: Antimicrobial activity against Aspergillus niger NICM 572 assessed as growth inhibition by two fold serial dilution method
[10] = tested on: Rhizopus arrhizus; assay: Antimicrobial activity against Rhizopus oryzae NICM 997 assessed as growth inhibition by two-fold serial dilution method

## Cc1nn(-c2ccc(-c3nnc(S)n3N)cc2)c(=O)n1N
[1]
  MIC: 18.8 µg/mL (≈ 61.6 µM)
[2]
  MIC: 37.5 µg/mL (≈ 123 µM)
[3]
  MIC: 75 µg/mL (≈ 246 µM)
[4]
  MIC: 9.37 µg/mL (≈ 30.8 µM)
[5]
  MIC: 18.8 µg/mL (≈ 61.6 µM)
[6]
  MIC: 150 µg/mL (≈ 493 µM)
[7]
  MIC: 150 µg/mL (≈ 493 µM)
[8]
  MIC: 75 µg/mL (≈ 246 µM)
[9]
  MIC: 37.5 µg/mL (≈ 123 µM)
[10]
  MIC: 18.8 µg/mL (≈ 61.6 µM)

## Cc1nn(-c2ccc(-c3nnc(S)o3)cc2)c(=O)n1/N=C/c1cscn1
[1]
  MIC: 150 µg/mL (≈ 389 µM)
[2]
  MIC: 37.5 µg/mL (≈ 97.3 µM)
[3]
  MIC: 18.8 µg/mL (≈ 48.6 µM)
[4]
  MIC: 75 µg/mL (≈ 195 µM)
[5]
  MIC: 37.5 µg/mL (≈ 97.3 µM)
[6]
  MIC: 150 µg/mL (≈ 389 µM)
[7]
  MIC: 150 µg/mL (≈ 389 µM)
[8]
  MIC: 150 µg/mL (≈ 389 µM)
[9]
  MIC: 150 µg/mL (≈ 389 µM)
[10]
  MIC: 37.5 µg/mL (≈ 97.3 µM)

## Cc1nn(-c2ccc(-c3nnc(S)o3)cc2)c(=O)n1/N=C/c1ccco1
[1]
  MIC: 37.5 µg/mL (≈ 102 µM)
[2]
  MIC: 150 µg/mL (≈ 407 µM)
[3]
  MIC: 75 µg/mL (≈ 204 µM)
[4]
  MIC: 37.5 µg/mL (≈ 102 µM)
[5]
  MIC: 150 µg/mL (≈ 407 µM)
[6]
  MIC: 150 µg/mL (≈ 407 µM)
[7]
  MIC: 150 µg/mL (≈ 407 µM)
[8]
  MIC: 150 µg/mL (≈ 407 µM)
[9]
  MIC: 150 µg/mL (≈ 407 µM)
[10]
  MIC: 150 µg/mL (≈ 407 µM)

## Cc1nn(-c2ccc(-c3nnc(S)o3)cc2)c(=O)n1/N=C/c1ccccc1Br
[1]
  MIC: 150 µg/mL (≈ 328 µM)
[2]
  MIC: 150 µg/mL (≈ 328 µM)
[3]
  MIC: 75 µg/mL (≈ 164 µM)
[4]
  MIC: 75 µg/mL (≈ 164 µM)
[5]
  MIC: 75 µg/mL (≈ 164 µM)
[6]
  MIC: 150 µg/mL (≈ 328 µM)
[7]
  MIC: 150 µg/mL (≈ 328 µM)
[8]
  MIC: 75 µg/mL (≈ 164 µM)
[9]
  MIC: 150 µg/mL (≈ 328 µM)
[10]
  MIC: 37.5 µg/mL (≈ 82 µM)

## Cc1nn(-c2ccc(-c3nnc(S)o3)cc2)c(=O)n1/N=C/c1ccc(F)cc1
[1]
  MIC: 75 µg/mL (≈ 189 µM)
[2]
  MIC: 37.5 µg/mL (≈ 94.6 µM)
[3]
  MIC: 150 µg/mL (≈ 378 µM)
[4]
  MIC: 150 µg/mL (≈ 378 µM)
[5]
  MIC: 75 µg/mL (≈ 189 µM)
[6]
  MIC: 150 µg/mL (≈ 378 µM)
[7]
  MIC: 150 µg/mL (≈ 378 µM)
[8]
  MIC: 75 µg/mL (≈ 189 µM)
[9]
  MIC: 75 µg/mL (≈ 189 µM)
[10]
  MIC: 75 µg/mL (≈ 189 µM)

## Cc1nn(-c2ccc(-c3nnc(S)o3)cc2)c(=O)n1/N=C/c1cc(F)ccc1F
[1]
  MIC: 75 µg/mL (≈ 181 µM)
[2]
  MIC: 150 µg/mL (≈ 362 µM)
[3]
  MIC: 18.8 µg/mL (≈ 45.2 µM)
[4]
  MIC: 75 µg/mL (≈ 181 µM)
[5]
  MIC: 37.5 µg/mL (≈ 90.5 µM)
[6]
  MIC: 150 µg/mL (≈ 362 µM)
[7]
  MIC: 18.8 µg/mL (≈ 45.2 µM)
[8]
  MIC: 9.37 µg/mL (≈ 22.6 µM)
[9]
  MIC: 37.5 µg/mL (≈ 90.5 µM)
[10]
  MIC: 18.8 µg/mL (≈ 45.2 µM)

## Cc1nn(-c2ccc(-c3nnc(S)o3)cc2)c(=O)n1/N=C/c1cccc(F)c1
[1]
  MIC: 75 µg/mL (≈ 189 µM)
[2]
  MIC: 9.37 µg/mL (≈ 23.6 µM)
[3]
  MIC: 37.5 µg/mL (≈ 94.6 µM)
[4]
  MIC: 9.37 µg/mL (≈ 23.6 µM)
[5]
  MIC: 18.8 µg/mL (≈ 47.3 µM)
[6]
  MIC: 75 µg/mL (≈ 189 µM)
[7]
  MIC: 150 µg/mL (≈ 378 µM)
[8]
  MIC: 150 µg/mL (≈ 378 µM)
[9]
  MIC: 150 µg/mL (≈ 378 µM)
[10]
  MIC: 150 µg/mL (≈ 378 µM)

## Cc1nn(-c2ccc(-c3nnc(S)o3)cc2)c(=O)n1/N=C/c1ccccc1F
[1]
  MIC: 75 µg/mL (≈ 189 µM)
[2]
  MIC: 75 µg/mL (≈ 189 µM)
[3]
  MIC: 150 µg/mL (≈ 378 µM)
[4]
  MIC: 37.5 µg/mL (≈ 94.6 µM)
[5]
  MIC: 75 µg/mL (≈ 189 µM)
[6]
  MIC: 75 µg/mL (≈ 189 µM)
[7]
  MIC: 150 µg/mL (≈ 378 µM)
[8]
  MIC: 37.5 µg/mL (≈ 94.6 µM)
[9]
  MIC: 75 µg/mL (≈ 189 µM)
[10]
  MIC: 9.37 µg/mL (≈ 23.6 µM)

## CCOC(=O)CSc1nnc(-c2ccc(-n3nc(C)n(N)c3=O)cc2)o1
[1]
  MIC: 75 µg/mL (≈ 199 µM)
[2]
  MIC: 37.5 µg/mL (≈ 99.6 µM)
[3]
  MIC: 75 µg/mL (≈ 199 µM)
[4]
  MIC: 18.8 µg/mL (≈ 49.8 µM)
[5]
  MIC: 37.5 µg/mL (≈ 99.6 µM)
[6]
  MIC: 150 µg/mL (≈ 399 µM)
[7]
  MIC: 150 µg/mL (≈ 399 µM)
[8]
  MIC: 150 µg/mL (≈ 399 µM)
[9]
  MIC: 150 µg/mL (≈ 399 µM)
[10]
  MIC: 150 µg/mL (≈ 399 µM)

## Cc1nn(-c2ccc(-c3nnc(S)o3)cc2)c(=O)n1N
[1]
  MIC: 37.5 µg/mL (≈ 129 µM)
[2]
  MIC: 75 µg/mL (≈ 258 µM)
[3]
  MIC: 150 µg/mL (≈ 517 µM)
[4]
  MIC: 75 µg/mL (≈ 258 µM)
[5]
  MIC: 37.5 µg/mL (≈ 129 µM)
[6]
  MIC: 150 µg/mL (≈ 517 µM)
[7]
  MIC: 37.5 µg/mL (≈ 129 µM)
[8]
  MIC: 150 µg/mL (≈ 517 µM)
[9]
  MIC: 150 µg/mL (≈ 517 µM)
[10]
  MIC: 75 µg/mL (≈ 258 µM)

## CSc1nnc(-c2ccc(-n3nc(C)n(N)c3=O)cc2)o1
[1]
  MIC: 75 µg/mL (≈ 246 µM)
[2]
  MIC: 75 µg/mL (≈ 246 µM)
[3]
  MIC: 75 µg/mL (≈ 246 µM)
[4]
  MIC: 37.5 µg/mL (≈ 123 µM)
[5]
  MIC: 150 µg/mL (≈ 493 µM)
[6]
  MIC: 150 µg/mL (≈ 493 µM)
[7]
  MIC: 150 µg/mL (≈ 493 µM)
[8]
  MIC: 150 µg/mL (≈ 493 µM)
[9]
  MIC: 150 µg/mL (≈ 493 µM)
[10]
  MIC: 37.5 µg/mL (≈ 123 µM)

## C[C@@H]1[C@H](O)[C@@H](C)/C=C/C=C/C=C/C=C/C=C/C=C/C=C/[C@H](O[C@@H]2O[C@H](C)[C@@H](O)[C@H](N)[C@@H]2O)C[C@@H]2O[C@](O)(C[C@@H](O)C[C@@H](O)[C@H](O)CC[C@@H](O)C[C@@H](O)CC(=O)O[C@H]1C)C[C@H](O)[C@H]2C(=O)O [AMPHOTERICIN B]
[6]
  MIC: 6.25 µg/mL (≈ 6.76 µM)
[7]
  MIC: 6.25 µg/mL (≈ 6.76 µM)
[8]
  MIC: 6.25 µg/mL (≈ 6.76 µM)
[9]
  MIC: 1.56 µg/mL (≈ 1.69 µM)
[10]
  MIC: 1.56 µg/mL (≈ 1.69 µM)

## CC1(C)S[C@@H]2[C@H](NC(=O)Cc3ccccc3)C(=O)N2[C@H]1C(=O)O [PENICILLIN G]
[1]
  MIC: 9.37 µg/mL (≈ 28 µM)
[2]
  MIC: 6.25 µg/mL (≈ 18.7 µM)
[3]
  MIC: 3.12 µg/mL (≈ 9.35 µM)
[4]
  MIC: 6.25 µg/mL (≈ 18.7 µM)
[5]
  MIC: 1.53 µg/mL (≈ 4.56 µM)

## CN[C@@H]1[C@H](O[C@H]2[C@H](O[C@H]3[C@H](O)[C@@H](O)[C@H](N=C(N)N)[C@@H](O)[C@@H]3N=C(N)N)O[C@@H](C)[C@]2(O)C=O)O[C@@H](CO)[C@H](O)[C@H]1O [STREPTOMYCIN]
[1]
  MIC: 3.12 µg/mL (≈ 5.37 µM)
[2]
  MIC: 3.12 µg/mL (≈ 5.37 µM)
[3]
  MIC: 1.56 µg/mL (≈ 2.69 µM)
[4]
  MIC: 1.56 µg/mL (≈ 2.68 µM)
[5]
  MIC: 6.25 µg/mL (≈ 10.7 µM)
